Source: article PMC8068288, “Novel Thiol Containing Hybrid Antioxidant-Nitric Oxide Donor Small Molecules for Treatment of Glaucoma” (Antioxidants, 2021)

Tests used:
[1] = system: intraocular pressure; assay: IOP lowering in dexamethasone induced ocular hypertensive (OHT) mouse eyes; format: in vivo; conditions: periocular once every week for 4 weeks, baseline 11.85 ± 2.27
Experimental: Mice (C57BL/6J, 12 weeks, n = 3–5) were anesthetized and the periocular injection of dexamethasone acetate (DEX-Ac, 10 mg/mL) or vehicle (20 μL) was administered immediately under the isoflurane over the course of 10 to 15 s. The procedure was performed in both eyes of each mice after it was numbed with proparacaine as reported previously. Mice were treated with DEX-Ac or vehicle once per week for four weeks to achieve the desired IOP elevation. Baseline IOP was measured using tonometer. […] The entire dosing schedule was repeated 3 times in each mouse eye. IOP plots were generated from IOP values obtained from the treated eyes.

[2] = system: intraocular pressure; set-up: method as in private communication, unpublished result; conditions: monkey eyes; ref private communication, unpublished result; cited from earlier work
[3] = system: NTM-5 cells; assay: Total nitrite release by Griess assay in NTM-5 cell supernatant; format: cell-based, human; conditions: for NO released in NTM-5 cell supernatants: 28 h at 37 °C; for start of NO release: buffer solution and TM cells
Experimental: (§1) The total nitrite released from the compounds in buffer and in cell supernatant were measured by Griess assay as reported by us previously. In brief, compounds (SA-2, SA-9, and SA-10) in buffer at different concentrations (1 mM, 500 µM, 250 µM 125 µM, 62.5 µM, 31.25 µM, and 15.625 µM) or supernatant collected from Human transformed trabecular meshwork (NTM-5) cells were added to a 96-well plate. 1% Sulphanilamide in 5% phosphoric acid and 0.1% N-1-napthylethylenediamine dihydrochloride (NED) were added to experimental samples sequentially at room temperature and away from light. SIN-1 was used as reference standard. UV Absorbances (Cytation 5) were measured at specific timepoints (0, 5 min, 10 min, 15 min, 30 min, 24 h, and 28 h) at 520 nm.
(§2) The experiments were repeated twice with four technical replicates.

[4] = system: NTM-5 cells; assay: In vitro cytoprotection assay against TBHP (MTT); format: cell-based; conditions: Homo sapiens, TBHP 350 µM, read-out: EC50 of increase in cell viability (cytoprotection)
Experimental: After 24 h of treatment, cell proliferation was measured using MTT assay. All the experiments are done in duplicate with four experimental replicates.

[5] = system: NTM-5 cells; assay: In vitro peroxynitrite measurement assay; format: cell-based, human; conditions: 0.1 µM and 1 mM, with or without TBHP 350 µM
Experimental: Human transformed trabecular meshwork (NTM-5) cells (20,000 cells/well/90 µL) were seeded in 96-well plates (Griener bio-one black plate) and stained with 10 µL of 10X Peroxynitrite Sensor Green solution for 1 h. […] SIN-1 was used as a positive control. Detection of peroxynitrite was done using Peroxynitrite Assay Kit (abcam-ab233468-cell based). Fluorescence signals were measured using a microplate reader (Cytation5) at Ex/Em = 485/530 nm at time intervals (15 min, 30 min, 1 h, 2 h, and 3 h). The experiments were done in duplicates.

[6] = system: NTM-5 cells; assay: Superoxide scavenging ratio in NTM-5 cell supernatant (pyrogallol assay), with or without TBHP; format: cell-based, human; conditions: for AUC0-3h of superoxide scavenging ratio: NTM-5 cell supernatant, 18 h treatment, 0.1-1000 µM
Experimental: The ROS scavenging ratio was determined using a chemical assay where WST-1 was used as superoxide scavenger produced by pyrogallol following a reported protocol. Briefly, the superoxide anion radical scavenging activity was determined spectrophotometrically by measuring the formation of WST-1 formazan at 450 nm. WST-1 (40 µL, 50 µM) was added to the compounds (or corresponding solution) in a final volume of 160 µL in 50 mM ammonium hydrogen carbonate buffer, 0.5 mM EDTA, pH 9.3. Reaction was launched by adding 40 µL 1 mM pyrogallol. The operation was based on the 96-well microplate, and measurement was performed at different time points under 37 °C by Cytation5 Microplate Reader. Baicalein (1 mM) was used as positive control. Compounds SA-2, SA-9, and SA-10 were used in concentrations ranging from 1 µM, 10 µM, 100 µM, and 1000 µM. The superoxide anion radical scavenging ratio % was calculated according to the following formula:Scavenging ratio (%) = A0 − (A1 − A2)/A0 × 100% […]
as §2
Figure 2 Superoxide scavenging ability of SA compounds in buffer and cells. (a) The % of superoxide scavenging response from 1 mM concentration of SA-2, SA-9, and SA-10 in pyrogallol (Pyr, 1 mM) induced superoxide induction assay at different time points in buffer. The AUC0–2.5 h for SA-2, SA-9, and SA-10 were 1592 ± 37.87, 1355 ± 42.62, and 2350 ± 69.26, respectively. (b) Comparison of the % ROS scavenging activity of SA-2, SA-9, and SA-10 with control after 15 min of treatment of pyrogallol. (c) The superoxide scavenging ratio (%) after 18 h treatment of 10 µM concentration of SA-2, SA-9, and SA-10 to NTM-5 cell supernatant using pyrogallol induced superoxide induction assay at different time points. (d) The superoxide scavenging ratio (%) of 10 µM concentration of SA-2, SA-9, and SA-10 in NTM-5 cell supernatant. The cells were previously treated with 5.5 mM of TBHP for 30 min followed by SA compounds and incubated for 18 h. Control is untreated cells. Three technical replicates were used for each experiment and all experiments were repeated 2 times. * p < 0.05, ** p < 0.005, *** p < 0.001, **** p < 0.0001, One-way ANOVA for (b), and two-way ANOVA for (c,d).
Figure S1: Superoxide scavenging ability of SA compounds in buffer and cells. a) The % of superoxide scavenging response from different concentrations of SA-2, SA-9 and SA-10 in pyrogallol (1 µM, 10 µM, 100 µM and 1,000 µM) induced superoxide induction assay at 15 minutes time point in buffer solution. The […]
superoxide scavenging ratio (%) after 18h treatment of different concentrations (0.1 µM, 1 µM, 10 µM, 100 µM and 1,000 µM) of SA-2, SA-9 and SA-10 to NTM-5 cell supernatant with or without TBHP (5.5 mM) using pyrogallol induced superoxide induction assay at 3h time point. Control is untreated cells. The cells were previously treated with 5.5 mM of TBHP for 30 minutes followed by SA compounds and TBHP and incubated for 18h. Control is untreated cells. e) The AUC0-3h for SA-2, SA-9 and SA-10 were 18902 ± 2714, […]
for each experiment and all experiments were repeated 2 times. N = 3.
(1 picture or pasted object on this page, not shown here)

[7] = system: NTM-5 cells; assay: In vitro cell viability (MTT) assay; conditions: for cytotoxicity: NTM-5 cells, 24 h, up to 1000 µM
Experimental: NTM-5 cells (6000 cells/well) were seeded in 96-well plates to confluency. […] The cell viability and proliferation were measured using MTT assays (CellTiter 96® AQueous One Solution Cell Proliferation Assay, Promega Madison, WI, USA) following manufacturer instruction. The experiments were repeated twice with four technical replicates.

[8] = set-up: method as in PMID 26832784; conditions: PBS 7.4; cited from earlier work
[9] = Superoxide anion radical scavenging assay (pyrogallol/WST-1) in buffer; format: biochemical; conditions: for AUC0–2.5 h of % superoxide scavenging response: 1 mM compound, pyrogallol 1 mM; for earliest time of superoxide (O2−) radical scavenging: buffer solution and TM cells; for superoxide radicals scavenged: dose response 1-1000 µM; for AUC0-15 of % superoxide scavenging response: different concentrations 1-1000 µM, 15 minutes time point
Experimental: The ROS scavenging ratio was determined using a chemical assay where WST-1 was used as superoxide scavenger produced by pyrogallol following a reported protocol. Briefly, the superoxide anion radical scavenging activity was determined spectrophotometrically by measuring the formation of WST-1 formazan at 450 nm. WST-1 (40 µL, 50 µM) was added to the compounds (or corresponding solution) in a final volume of 160 µL in 50 mM ammonium hydrogen carbonate buffer, 0.5 mM EDTA, pH 9.3. Reaction was launched by adding 40 µL 1 mM pyrogallol. The operation was based on the 96-well microplate, and measurement was performed at different time points under 37 °C by Cytation5 Microplate Reader. Baicalein (1 mM) was used as positive control. Compounds SA-2, SA-9, and SA-10 were used in concentrations ranging from 1 µM, 10 µM, 100 µM, and 1000 µM. The superoxide anion radical scavenging ratio % was calculated according to the following formula:Scavenging ratio (%) = A0 − (A1 − A2)/A0 × 100%

[10] = Total nitrite/NO release by Griess assay in buffer (aqueous stability); format: physicochemical; conditions: even after 3 days
Experimental: as §1, with “UV Absorbances (Cytation 5) were measured at specific timepoints (0, 5 min, 10 min, 15 min, 30 min, 24 h, and 28 h) at 520 nm.” left out

[11] = Hypochlorous acid (HOCl) radical scavenging assay (TNB) in buffer; format: biochemical
Experimental: This assay used the redox reaction between 5-thio-2-nitrobenzoic acid (TNB) and HOCl to form dithio-TNB. Using the method described previously, we assessed the % TNB remaining with or without treatment with SA compounds. Compounds SA-2, SA-9, and SA-10 were used in concentrations ranging from 0.1 µM, 1 µM, 10 µM, 100 µM, and 1000 µM. Lipoic acid (1 mM) was used as positive control.

[12] = system: intraocular pressure; set-up: method as in PMID 8675417; conditions: rabbit eyes, 20 mM, intraocular injection; cited from earlier work

Compound | NO released in NTM-5 cell supernatants [3] | start of NO release [3] [h] | EC50 [4] [µM] | ONOO− radical formation [5] | AUC0-3h of superoxide scavenging ratio ([6]; with TBHP 5.5 mM) | AUC0-3h of superoxide scavenging ratio ([6]; without TBHP) | cytotoxicity [7] | AUC0–2.5 h of % superoxide scavenging response ([9]; buffer) | earliest time of superoxide (O2−) radical scavenging [9] [min] | superoxide radicals scavenged ([9]; buffer) | AUC0-15 of % superoxide scavenging response ([9]; buffer) | further results
CC(=O)OCC(=O)[C@@]1(O)[C@H](C)C[C@H]2[C@@H]3CCC4=CC(=O)C=C[C@]4(C)[C@@]3(F)[C@@H](O)C[C@@]21C [Dexamethasone, dexamethasone acetate] | – | – | – | – | – | – | – | – | – | – | – | IOP after dexamethasone injection [1]: 21.9 ± 5.92 mm/Hg
CCOC(=O)[N-]c1cn(N2CCOCC2)n[o+]1 [Molsidomine, molsidomine] | – | – | – | – | – | – | – | – | – | – | – | NO release profile or IOP lowering activity [2]: no NO release profile or IOP lowering activity
CC1(C)CC([n+]2cc([NH-])on2)CC(C)(C)N1O [SA-2, reference compound] | dose dependently | > 24 | 5.2 | produced less | 18285 ± 3960 | 18902 ± 2714 | no cytotoxicity | 1592 ± 37.87 | 7 | 16–40% | 11604± 815.9 | half-life in PBS7.4 [8]: < 1 h
Cl.[NH-]c1c[n+](C2CCS(=O)(=O)CC2)no1 [SA-10, (3-(1,1-dioxidotetrahydro-2H-thiopyran-4-yl)-1,2,3-oxadiazol-3-ium-5-yl) amide hydrochloride] | dose dependently | > 24 | 0.0103 | not as efficacious as SA-9 | 17893 ± 2714 | 21444 ± 1877 | no cytotoxicity | 2350 ± 69.26 | 7 | 16–40% | 20433± 3128 | NO release in buffer [10]: did not observe any NO release; fold more potent than lipoic acid in HOCl scavenging ([11]; 0.1 µM vs. 1 mM lipoic acid, 30 min): 10,000 fold; duration of HOCl scavenging effect ([11]; 0.1 µM–1000 µM in buffer): > 1 h; superoxide scavenging ability (ratio) ([6]; 10 µM for 18 h, NTM-5 cells insulted with TBHP, TBHP alone 2.5%): 20–25%; fold prevention of the decrease in superoxide scavenging ability vs TBHP alone ([6]; 10 µM for 18 h, TBHP-treated NTM-5 cells): ~ 10 fold; fold more potent than SA-2 in superoxide scavenging ([9]; 1 mM, buffer, 15 min after pyrogallol): 2.5 fold
[NH-]c1c[n+](N2CCOCC2)no1 [SIN-1, linsidomine, reference compound] | – | – | – | significantly higher level | – | – | – | – | – | – | – | duration of IOP reduction [12]: up to 3 h
CC(C)(C)OO [TBHP, t-butyl hydrogen peroxide, reference compound] | – | – | – | – | – | – | – | – | – | – | – | EC50 ([7]; Homo sapiens, read-out: half-maximal effective concentration (EC50) dose of TBHP): 350 µM
